Experimental data as given in patent US7459434B2, “Peptide interacting with anti-apoptotic proteins of the Bcl-2 family” (Les Laboratories Servier, priority 2003, dated 2008).
No end group written: not given here.

Tests used:
Bcl-W = molecular target: T1, Bcl-W (Homo sapiens, UniProt Q92843); assay: Fluorescence polarisation, Kd of peptide with GST-Bcl-W; type: binding; settings: 15 nM peptide labelled with fluorescein at the N-terminal end; GST-Bcl-W 1 nM to 5 μM; pH 7.4; FIG. 3; read-out: Kd obtained with Bcl-W
T1 sequence (Q92843 1-193): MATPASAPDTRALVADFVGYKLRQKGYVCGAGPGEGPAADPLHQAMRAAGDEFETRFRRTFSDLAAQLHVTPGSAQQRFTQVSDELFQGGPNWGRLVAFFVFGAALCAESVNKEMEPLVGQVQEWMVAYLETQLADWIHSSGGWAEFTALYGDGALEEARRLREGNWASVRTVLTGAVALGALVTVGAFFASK
Method: (§1) 2) Fluorescence Polarisation: Determination of the Kd of the Interaction Between the Peptide Obtained in Example 1 and the Anti-Apoptotic Protein
(§2) A 15 nM solution of the peptide obtained in Example 1 labelled with fluorescein at the N-terminal end is mixed with a solution containing the fusion protein GST-Bcl-XL or GST-Bcl-W at a concentration varying from 1 nM to 5 μM in a buffer containing Na2HPO4 20 mM pH 7.4, EDTA 1 mM, NaCl 50 mM, pluronic acid F-68 0.05%. The fluorescence polarisation is then measured by the En Vision apparatus (Packard Perkin-Elmer).

Bcl-XL = Bcl-XL (Homo sapiens, UniProt Q07817); assay: Fluorescence polarisation, Kd of peptide with GST-Bcl-XL; type: binding; settings: 15 nM peptide labelled with fluorescein at the N-terminal end; GST-Bcl-XL 1 nM to 5 μM; pH 7.4; FIG. 2; read-out: Kd obtained with Bcl-XL
Sequence of Bcl-XL (Q07817 whole entry, species assumed): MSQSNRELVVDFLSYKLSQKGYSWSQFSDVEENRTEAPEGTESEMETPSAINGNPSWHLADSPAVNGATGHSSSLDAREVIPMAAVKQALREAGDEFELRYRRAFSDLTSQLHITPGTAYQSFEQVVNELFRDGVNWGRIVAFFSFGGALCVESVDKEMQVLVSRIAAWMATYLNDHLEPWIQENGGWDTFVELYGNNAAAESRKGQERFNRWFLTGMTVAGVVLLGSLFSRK
Method: as §1, §2

- Kd (Bcl-W): 0.411 µM
- Kd (Bcl-XL): 0.215 µM
Sequence: DTRRSMVFARHLREVGDEFRSR [peptide obtained in Example 1]
